{"source": "patent US20090203661A1", "about": "“Betulinic acid, derivatives and analogs thereof and uses therefor” (priority 2006, published 2009)", "key": {"[1]": {"test_system": "SW480 cells", "assay": "Cell proliferation assay, SW480 cells", "type": "cell-based, human", "conditions": "read-out: IC50 values, inhibition of growth", "description": "SW480, HT-29 and HCT-15 human colon cancer cells were provided by Dr. Stan Hamilton (M. D. Anderson Cancer Center (Houston, Tex.). Panc-28 human pancreatic cancer cells and 3T3-L1 pre-adipocytes were obtained from American Type Culture Collection (Manassas, Va.). SW480, HT-29 and Panc-28 cells were maintained in Dulbecco's modified/Ham's F-12 (Sigma-Aldrich, St Louis, Mo.) with phenol red supplemented with 0.22% sodium bicarbonate, 0.011% sodium pyruvate, 5% fetal bovine serum, and 10 mL/L 100× antibiotic antimycotic solution (Sigma). HCT-15 cells were maintained in RPMI 1640 (Sigma) supplemented with 0.22% sodium bicarbonate, 0.011% sodium pyruvate, 0.45% glucose, 0.24% HEPES, 10% fetal bovine serum, and 10 mL/L of 100× antibiotic antimycotic solution (Sigma). Cells were maintained at 37° C. in the presence of 5% CO2.\nThis assay is performed in 12-well tissue culture plates at the concentration of 2×10^4 cells per well, using DMEM/Ham's F-12 media containing 2.5% charcoal stripped FBS. The cells were counted on the initial day using a Z1 cell counter (Beckman Coulter, Fullerton, Calif.) and then were treated either with vehicle (DMSO) or the indicated triterpenoid compounds, each sample in triplicate. Every 48 hr, fresh medium was added along with the indicated compounds. The count of the cells was taken after 2, 4 and 6 days. The results are expressed as means±S.E for each set of triplicate."}, "[2]": {"test_system": "PPARγ", "assay": "PPARγ transactivation (PPARγ-GAL4/pGAL4, PPRE3-luc) in SW480 cells", "type": "cell-based", "conditions": "for transactivation, PPARγ-GAL4/pGAL4 and PPRE3-luc: SW480, 2.5-10 μM; for effect of PPARγ antagonist T007 on induced activities: SW480, cotreatment with T007", "description": "(§1) Cells were seeded onto the 12-well plates and 0.4 μg of GAL4-Luc, 0.04 μg of β-GAL, 0.04 μg of GAL4DBD-PPARγ, and 0.4 μg of p21-luc(FL) containing −2325 to +8 insert, 0.4 μg of p21-luc (−124) containing −124 to +8 insert and 0.4 μg of p21-LUC (−60) containing −60 to +8 insert were transfected using LipofectAMINE reagent (Invitrogen) following the manufacturer's protocol. Cells were treated either with vehicle or respective compounds suspended in complete medium after 6 hr of transfection. Cell lysate is extracted after 20-22 hr by adding 100 μl of 1× reporter lysis buffer per well and 30 μl of this extract is used to quantitate the luciferase activity using Lumicount (Perkin-Elmer Life and Analytical Sciences). Each experiment is done in triplicate and the results are normalized to the β-GAL activity."}, "[3]": {"test_system": "PPARγ", "assay": "PPARγ transactivation (PPARγ-GAL4/pGAL4, PPRE3-luc) in Panc-28 cells", "type": "cell-based", "description": "as §1"}, "[4]": {"test_system": "Panc-28 cells", "assay": "Western blot of p21, p27, cyclin D1 in Panc-28 cells", "type": "cell-based, human", "conditions": "for effect of T007 on induction of p21 protein: 5 μM compound plus 10 μM T007; for cyclin D1 expression / p27 expression: Panc-28; for p21 protein expression: Panc-28, 24 hr", "description": "(§2) SW480, HT-29, HCT-15 and Panc-28 (3×10^5) colon cancer cells were seeded in 6-well tissue culture plates in DMEM/Ham's F-12 medium containing 2.5% charcoal-stripped FBS. Protein is extracted from the cells treated either with vehicle or indicated compounds suspended for 24 hr except for caveolin-1 protein which was done for 72 hr. Samples were extracted in high salt buffer [50 mmol/L HEPES, 500 mmol/L NaCl, 1.5 mmol/L MgCl2, 1 mmol/L EGTA, 10% glycerol, and 1% Triton X-100 (pH 7.5), and 5 μL/mL protease inhibitor cocktail (Sigma-Aldrich)]. Samples were incubated at 100° C. for 2 min, separated on either 10% or 12% SDS-PAGE gels and then transferred to polyvinylidene difluoride membrane (PVDF; Bio-Rad, Hercules, Calif.). The PVDF membrane was blocked in 5% TBST-Blotto (10 mM Tris HCl, 150 mM NaCl, pH 8.0, 0.05% Triton X-100, and 5% nonfat dry milk) for about 30 min and was then incubated in fresh 5% TBST-Blotto with 1:1000 for caveolin-1 (Santa Cruz Biotechnology, Santa Cruz, Calif.), 1:1000 for p21 (BD Pharmingen, Frank lakes, NJ) and 1:10000 for β-actin (Sigma) primary antibody overnight with gentle shaking at 4° C. After washing with TBST for 10 min, the membrane was incubated with respective secondary antibody (1:5000) (Santa cruz, Calif.) in 5% TBST-Blotto for 3 hr. The membrane is then washed with TBST for 10 min, incubated with chemiluminiscence reagent from Perkin Elmer for one min and then exposed to Kodak X-OMAT AR autoradiography film (Eastman Kodak, Rochester, N.Y.)."}, "[5]": {"test_system": "HCT-15 cells", "assay": "Caveolin-1 expression (Western blot) in HCT-15 cells", "type": "cell-based, human", "conditions": "HCT-15, cotreatment with T007", "description": "as §2, with “The membrane is then washed with TBST for 10 min, incubated with chemiluminiscence reagent from Perkin Elmer for one min and then exposed to Kodak X-OMAT AR autoradiography film (Eastman Kodak, Rochester, N.Y.).” left out"}, "[6]": {"test_system": "HT-29 cells", "assay": "KLF4 mRNA (RT-PCR) in HT-29 cells", "type": "cell-based, human", "conditions": "for KLF4 mRNA levels: HT-29; for effect of T007 on induction of KLF4 mRNA: HT-29, cotreatment with T007", "description": "(§3) SW480 and HT29 colon cancer cells were treated either with vehicle (DMSO) or indicated compounds and after 24 hr total RNA was extracted using RNeasy Mini kit (Qiagen, Inc., Valencia, Calif.). RNA concentration was measured by UV 260:280 nm absorption ratio and 2 μg RNA was used to synthesize cDNA using Reverse Transcription System (Promega). PCR conditions were as follows: initial denaturation at 94° C. (1 min) followed by 28 cycles of denaturation for 30 s at 94° C., annealing for 60 s at 55° C. and extension at 72° C. for 60 s and a final extension step at 72° C. for 5 min. The mRNA levels were normalized using GAPDH as an internal housekeeping gene. Primers obtained from IDT and used for amplification are as follows: KLF4 (sense 5′-CTATGGCAGGGAGTCCGCTCC-3′ (SEQ ID NO: 1); antisense 5′-ATGACCGACGGGCTGCCGTAC-3′ (SEQ ID NO: 2)) and GAPDH (sense 5′-ACGGATTTGGTCGTATTGGGCG-3′ (SEQ ID NO: 3); antisense 5′-CTCCTGGAAGATGGTGATGG-3′ (SEQ ID NO: 4). PCR products were electrophoresed on 1% agarose gels containing ethidium bromide and visualized under UV transillumination."}, "[7]": {"test_system": "SW480 cells", "assay": "KLF4 mRNA (RT-PCR) in SW480 cells", "type": "cell-based, human", "description": "as §3"}, "[8]": {"test_system": "HT-29 cells", "assay": "miR-27a and ZBTB10 mRNA expression in HT-29 cells", "type": "cell-based, human"}, "[9]": {"test_system": "RKO colon cancer cells", "assay": "Western blot of proapoptotic responses and Sp proteins in RKO cells", "type": "cell-based", "description": "RKO cells were […] with BA or CN-BA for 24 hr and whole cell lysates were examined by Western blot analysis.\nRKO colon cancer cells were treated with BA/CN-BA for 24 hr (FIG. 15A) or 48 hr (FIG. 15B) and Miapaca-2 pancreatic cancer cells were treated with BA/CN-BA for 24 hr (FIG. 15C). Whole cell lysates were examined by Western blot analysis."}}, "note": "Read-outs that look alike come from different tables or passages of the source.", "data": [{"molecule": "COC(=O)C12CCC(C(C)C)C1C1CCC3C4(C)C=C(C#N)C(=O)C(C)(C)C4CCC3(C)C1(C)CC2", "note": "(stereo not drawn) [CN-BA-Me, Methyl 2-cyano-lup-1-en-3-oxo-20-oate]", "values": [{"measurement": "IC50", "setting": "[1]", "result": "1000 to 2500", "unit": "nM"}, {"measurement": "transactivation, PPARγ-GAL4/pGAL4 and PPRE3-luc", "setting": "[2]", "result": "induced transactivation"}, {"measurement": "effect of PPARγ antagonist T007 on induced activities", "setting": "[2]", "result": "inhibited by T007"}, {"measurement": "induction, PPARγ-GAL4/pGAL4", "setting": "[3]; Panc-28", "result": "minimal induction"}, {"measurement": "induction, PPRE3-luc", "setting": "[3]; Panc-28, data not shown", "result": "no induction"}, {"measurement": "effect of T007 on induction of p21 protein", "setting": "[4]", "result": "significantly inhibited"}, {"measurement": "cyclin D1 expression", "setting": "[4]", "result": "downregulation of cyclin D1"}, {"measurement": "p27 expression", "setting": "[4]", "result": "induction of p27"}, {"measurement": "p21 protein expression", "setting": "[4]", "result": "induce p21 protein expression"}, {"measurement": "effect of T007 on induced caveolin-1 response", "setting": "[5]", "result": "inhibition of the induced caveolin-1 response"}, {"measurement": "KLF4 mRNA levels", "setting": "[6]", "result": "induced KLF4 mRNA levels"}, {"measurement": "effect of T007 on induction of KLF4 mRNA", "setting": "[6]", "result": "did not inhibit"}, {"measurement": "KLF4 expression", "setting": "[7]", "result": "did not induce KLF4 expression"}, {"measurement": "ZBTB10 expression", "setting": "[8]", "result": "increased expression of ZBTB10"}, {"measurement": "miR-27a expression", "setting": "[8]", "result": "decreased expression of miR-27a"}]}, {"molecule": "C=C(C)[C@@H]1CC[C@]2(C(=O)O)CC[C@]3(C)[C@H](CC[C@@H]4[C@@]5(C)CC[C@H](O)C(C)(C)[C@@H]5CC[C@]43C)[C@@H]12", "note": "[betulinic acid, Betulinic acid]", "values": [{"measurement": "IC50", "setting": "[1]; Homo sapiens", "result": "1000 to 5000", "unit": "nM"}, {"measurement": "transactivation, PPARγ-GAL4/pGAL4 and PPRE3-luc", "setting": "[2]", "result": "inactive"}, {"measurement": "luciferase activity, PPARγ-GAL4/pGAL4 and PPRE3-luc", "setting": "[3]; Panc-28", "result": "inactive"}, {"measurement": "effect of T007 on induction of p21 protein", "setting": "[4]", "result": "not inhibited"}, {"measurement": "effect of T007 on induction of KLF4 mRNA", "setting": "[6]", "result": "did not inhibit"}, {"measurement": "concentrations decreasing Sp proteins", "setting": "[9]; 48 hr", "result": "1 to 5", "unit": "µM"}]}, {"molecule": "CC(C)C1CCC2(C(=O)O)CCC3(C)C(CCC4C5(C)C=C(C#N)C(=O)C(C)(C)C5CCC43C)C12", "note": "(stereo not drawn) [CN-BA]", "values": [{"measurement": "IC50", "setting": "[1]", "result": 1000, "unit": "nM"}, {"measurement": "transactivation, PPARγ-GAL4/pGAL4 and PPRE3-luc", "setting": "[2]", "result": "induced transactivation"}, {"measurement": "effect of PPARγ antagonist T007 on induced activities", "setting": "[2]", "result": "inhibited by T007"}, {"measurement": "luciferase activity, PPARγ-GAL4/pGAL4 and PPRE3-luc", "setting": "[3]; Panc-28", "result": "induced luciferase activity"}, {"measurement": "effect of T007 on induced luciferase activity", "setting": "[3]; Panc-28, cotreatment with T007", "result": "inhibited"}, {"measurement": "effect of T007 on induction of p21 protein", "setting": "[4]", "result": "significantly inhibited"}, {"measurement": "cyclin D1 expression", "setting": "[4]", "result": "downregulation of cyclin D1"}, {"measurement": "p27 expression", "setting": "[4]", "result": "induction of p27"}, {"measurement": "p21 protein expression", "setting": "[4]", "result": "induce p21 protein expression"}, {"measurement": "effect of T007 on induced caveolin-1 response", "setting": "[5]", "result": "inhibition of the induced caveolin-1 response"}, {"measurement": "KLF4 mRNA levels", "setting": "[6]", "result": "induced KLF4 mRNA levels"}, {"measurement": "effect of T007 on induction of KLF4 mRNA", "setting": "[6]", "result": "did not inhibit"}, {"measurement": "KLF4 expression", "setting": "[7]", "result": "did not induce KLF4 expression"}, {"measurement": "Sp protein expression", "setting": "[9]; 24 and 48 hr", "result": "decrease Sp protein expression"}, {"measurement": "ATF3, JNK phosphorylation, CHOP and DR5", "setting": "[9]; 24 hours", "result": "activate"}, {"measurement": "proapoptotic responses", "setting": "[9]; 24 hours", "result": "activate proapoptotic responses"}, {"measurement": "ZBTB10 expression", "setting": "[8]", "result": "increased expression of ZBTB10"}, {"measurement": "miR-27a expression", "setting": "[8]", "result": "decreased expression of miR-27a"}]}]}
